Data from patent US11028090B2 (Dong Wha Pharm. Co., Ltd., priority 2017, dated 2021).
Like-named read-outs stand apart in the source and are kept apart here.

Biological target: BRD4 (BD1+BD2) bromodomain (Homo sapiens (Human), UniProt O60885)
Test: BRD4 binding inhibition (AlphaScreen, GST-BRD4 vs tetraacetylated histone H4 peptide)
Outline: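 AlphaScreen read after 30 min dark incubation at room temperature with glutathione acceptor/streptavidin donor beads (10 μg/ml each). The beads were added to compound plus 100 nM biotin-H4 (K5,8,12,16-acetyl) peptide and 100 nM GST-BRD4 BD1+BD2 in pH 7.4 HEPES/Tween/BSA/DTT buffer.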

[1] = GST-BRD4 (BD1+BD2) / biotinylated acetyl-histone H4 (Lys5,8,12,16) peptide, read-out: IC50, BRD4 binding inhibition
[2] = GST-BRD4 (BD1+BD2) vs biotinylated acetyl-histone H4 peptide, AlphaScreen, read-out: BRD4 IC50

SMILES	IC50 [1] [nM]	IC50 [2] [nM]
Cc1nnc2c(NCCCCNC(=O)[C@@H](F)C(C)C)nc3cc(N4C[C@@H](C)O[C@@H](C)C4)ccc3n12 [Example 511, N-{4-[7-(2,6-dimethyl-morphonyl-4-yl)-1-methyl-[1,2,4]triazolo[4,3-a]quinoxaline-4-ylamino]-butyl}-2-(S)-fluoro-3-methyl-butyramide]	≤ 50	34
Cc1nnc2c(NCCCCNC(=O)CC(C)C)nc3cc(N4CCSCC4)ccc3n12 [Example 523, 3-methyl-N-[4-(1-methyl-7-thiomorpholine-4-yl-[1,2,4]triazolo[4,3-a]quinoxaline-4-ylamino)-butyl]-butyramide]		54
Cc1nnc2c(NCCCCNC(=O)[C@H](O)C(C)C)nc3cc(N4CCSCC4)ccc3n12 [Example 524, N-[4-(7-thiomorphonyl-4-yl-1-methyl-[1,2,4]triazolo[4,3-a]quinoxaline-4-ylamino)-butyl]-2-(R)-hydroxy-3-methyl-butyramide]		69
COC(=O)c1ccc2nc(NCCCCNC(=O)OC(C)(C)C)c3nnc(C)n3c2c1 [Example 530, 4-(4-tert-butoxycarbonylamino-butylamino)-1-methyl-[1,2,4]triazolo[4,3-a]quinoxaline-8-carboxylic acid methylester]	≤ 50	34
Cc1nnc2c(NCCCCNC(=O)OC(C)(C)C)nc3ccc(C(=O)NC(C)C)cc3n12 [Example 532, [4-(8-isopropylcarbamoyl-1-methyl-[1,2,4]triazolo[4,3-a]quinoxaline-4-ylamino)-butyl]-carbamic acid-tert-butylester]		75
Cc1nnc2c(NCCCCNC(=O)OC(C)(C)C)nc3ccc(C(N)=O)cc3n12 [Example 533, [4-(8-carbamoyl-1-methyl-[1,2,4]triazolo[4,3-a]quinoxaline-4-ylamino)-butyl]-carbamic acid-tert-butylester]		67
Cc1nnc2c(NCCCCNC(=O)c3ccccc3)nc3ccc(C(=O)NCCN(C)C)cc3n12 [Example 537, 4-(4-benzoylamino)-1-methyl-[1,2,4]triazolo[4,3-a]quinoxaline-8-carboxylic acid-(2-dimethylamino-ethyl)-amide]		93
Cc1nnc2c(NCCCCNC(=O)OC(C)(C)C)nc3ccc(C(=O)Nc4ccccc4)cc3n12 [Example 538, [4-(1-methyl-8-phenylcarbamoyl-[1,2,4]triazolo[4,3-a]quinoxaline-4-ylamino)-butyl]-carbamic acid-tert-butylester]		69
Cc1nnc2c(NCCCCNC(=O)OC(C)(C)C)nc3ccc([N+](=O)[O-])cc3n12 [Example 541, [4-(1-methyl-8-nitro-[1,2,4]triazolo[4,3-a]quinoxaline-4-ylamino)-butyl]-carbamic acid-tert-butylester]	≤ 50	37
Cc1nnc2c(NCCCCNC(=O)OC(C)(C)C)nc3ccc(N)cc3n12 [Example 542, [4-(8-amino-1-methyl-[1,2,4]triazolo[4,3-a]quinoxaline-4-ylamino)-butyl]-carbamic acid-tert-butylester]		61
Cc1nnc2c(NCCCCNC(=O)C(C)(C)C)nc3ccc(NC(=O)C(C)C)cc3n12 [Example 545]		65
CC(=O)Nc1ccc2nc(NCCCCNC(=O)OC(C)(C)C)c3nnc(C)n3c2c1 [Example 546, [4-(8-acetamino-1-methyl-[1,2,4]triazolo[4,3-a]quinoxaline-4-ylamino)-butyl]-carbamic acid-tert-butylester]	≤ 50	
CC(=O)Nc1ccc2nc(NCCCCNC(=O)C(C)(C)C)c3nnc(C)n3c2c1 [Example 547, N-[4-(8-acetamino-1-methyl-[1,2,4]triazolo[4,3-a]quinoxaline-4-ylamino)-butyl]-2,2-dimethyl-propionamide]	≤ 50	
CC(=O)Nc1ccc2nc(NCCCCNC(=O)c3ccccc3)c3nnc(C)n3c2c1 [Example 548, N-[4-(8-acetamino-1-methyl-[1,2,4]triazolo[4,3-a]quinoxaline-4-ylamino)-butyl]-benzamide]	≤ 50	45
